The record followed here is publication PMC3004370, “PI3Kα Inhibitors That Inhibit Metastasis” (Oncotarget, 2010).

One test has as its target T1, p110α (Homo sapiens, UniProt P42336).
T1 construct: His-tag; made in house; host or cells: Sf9 insect cells (baculovirus)
The test is described as follows: Biochemical PI3K inhibition assay, p110α. The conditions noted are these: for IC50: 10 μM ATP, two hours; for effect of substitution on PI3Kα potency/selectivity (in words): SAR discussion. The method, then: PIK3CD was generously provided by Novartis Pharmaceuticals. […] Sf9 cells were lysed in a buffer containing 50 mM sodium phosphate, pH 8.0, 400 mM NaCl, 5% glycerol, 1% Triton X-100, 10 mM 2-mercaptoethanol, 1 mM orthovanadate, 10 mM imidazole, and sonicated on ice for 1 minute. Proteins were purified by adding Ni-NTA Superflow beads (Qiagen, Valencia, CA, USA) to the lysate and subsequent rolling for 30 min at 4°C. Beads were washed twice with 50 mM phosphate buffer, pH 8.0, 0.5 M NaCl, 50 mM Imidazole, 2 mM DTT and eluted in the same buffer but with 200 mM imidazole. Purified PI3K's were mixed 1:1 with glycerol and stored at -20°C.
J-series inhibitors were dissolved, serial diluted in DMSO and deposited into 96 well plates at a final DMSO concentration of 1%. We used a novel assay to determine their potency and selectivity. […] Reactions were timed after the addition of 10 μM ATP with 40 μCi/ml γ-32P-ATP (PerkinElmer, Waltham, MA, USA) and 2 mM MgCl2 (all final concentrations). The reactions were terminated after two hours by the addition of 2 N HCl and the lipids extracted with 1:1 MetOH/Chloroform. Radio-labeled phosphatidyl-inositol-3-phosphate in the extracted organic fraction was quantified after the addition of Microscint O (PerkinElmer) using a TopCount 96 well plate scintillation counter (PerkinElmer). IC50 concentrations and inhibition curves were calculated using Prism 5 (GraphPad Software, La Jolla, CA).

The target of a further test is T2, p110δ (Homo sapiens, UniProt O00329).
T2 construct: His-tag; made in house; host or cells: Sf9 insect cells (baculovirus)
T2 sequence (O00329 whole entry): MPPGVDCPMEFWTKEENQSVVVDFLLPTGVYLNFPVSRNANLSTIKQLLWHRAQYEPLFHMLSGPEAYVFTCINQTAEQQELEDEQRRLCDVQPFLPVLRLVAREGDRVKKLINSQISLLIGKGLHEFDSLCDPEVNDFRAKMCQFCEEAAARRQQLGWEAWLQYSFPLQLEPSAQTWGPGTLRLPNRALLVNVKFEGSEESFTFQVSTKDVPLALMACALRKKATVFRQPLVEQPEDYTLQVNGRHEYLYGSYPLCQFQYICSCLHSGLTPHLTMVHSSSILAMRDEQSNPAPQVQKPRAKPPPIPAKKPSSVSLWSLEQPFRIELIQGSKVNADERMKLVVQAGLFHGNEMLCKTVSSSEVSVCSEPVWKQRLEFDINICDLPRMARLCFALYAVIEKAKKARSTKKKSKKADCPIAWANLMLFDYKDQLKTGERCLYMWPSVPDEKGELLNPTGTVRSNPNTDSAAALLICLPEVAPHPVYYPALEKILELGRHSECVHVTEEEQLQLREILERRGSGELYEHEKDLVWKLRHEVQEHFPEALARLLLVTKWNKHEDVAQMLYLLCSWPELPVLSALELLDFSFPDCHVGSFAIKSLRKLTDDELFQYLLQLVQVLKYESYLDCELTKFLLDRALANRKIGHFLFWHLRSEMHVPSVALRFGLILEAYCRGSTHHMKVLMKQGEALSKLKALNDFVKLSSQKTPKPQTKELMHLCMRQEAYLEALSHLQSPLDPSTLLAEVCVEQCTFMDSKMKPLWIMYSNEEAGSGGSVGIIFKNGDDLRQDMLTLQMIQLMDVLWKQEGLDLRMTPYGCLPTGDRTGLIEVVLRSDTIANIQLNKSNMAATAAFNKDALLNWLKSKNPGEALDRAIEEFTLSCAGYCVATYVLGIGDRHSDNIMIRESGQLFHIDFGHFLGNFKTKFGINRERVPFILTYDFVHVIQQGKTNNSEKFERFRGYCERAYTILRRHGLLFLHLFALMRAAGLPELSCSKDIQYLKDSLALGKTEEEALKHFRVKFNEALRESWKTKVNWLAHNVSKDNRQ
T2 sequence (P27986 322-600 partner limits assumed): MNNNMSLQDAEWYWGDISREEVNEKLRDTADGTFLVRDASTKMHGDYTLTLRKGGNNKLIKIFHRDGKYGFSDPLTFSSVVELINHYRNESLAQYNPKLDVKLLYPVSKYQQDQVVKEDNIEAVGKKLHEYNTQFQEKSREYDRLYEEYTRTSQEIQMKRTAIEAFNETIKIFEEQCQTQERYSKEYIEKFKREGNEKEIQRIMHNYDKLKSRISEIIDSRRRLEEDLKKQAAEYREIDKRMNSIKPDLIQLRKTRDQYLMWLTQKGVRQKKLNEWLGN
Description: Biochemical PI3K inhibition assay, p110δ. The conditions noted are these: for IC50: 10 μM ATP, two hours. An excerpt:
(§1) cDNA clones of PIK3CA, PIK3CB and PIK3CG were obtained from Origene (Rockville, MD, USA). PIK3CD was generously provided by Novartis Pharmaceuticals. The cDNA clones were sub-cloned into pFastBac His-Tag (Invitrogen, Carlsbad, CA, USA) and baculovirus clones were generated by the Bac-to-Bac expression system (Invitrogen). p110α, p110β and p110δ were co-expressed in Sf9 insect cells (Invitrogen) with a nSH2-iSH2 fragment of the regulatory subunit p85 comprising AA residues 322 to 600 [4]. p110γ was expressed without a regulatory subunit. Sf9 cells were lysed in a buffer containing 50 mM sodium phosphate, pH 8.0, 400 mM NaCl, 5% glycerol, 1% Triton X-100, 10 mM 2-mercaptoethanol, 1 mM orthovanadate, 10 mM imidazole, and sonicated on ice for 1 minute. Proteins were purified by adding Ni-NTA Superflow beads (Qiagen, Valencia, CA, USA) to the lysate and subsequent rolling for 30 min at 4°C. Beads were washed twice with 50 mM phosphate buffer, pH 8.0, 0.5 M NaCl, 50 mM Imidazole, 2 mM DTT and eluted in the same buffer but with 200 mM imidazole. Purified PI3K's were mixed 1:1 with glycerol and stored at -20°C.
(§2) J-series inhibitors were dissolved, serial diluted in DMSO and deposited into 96 well plates at a final DMSO concentration of 1%. We used a novel assay to determine their potency and selectivity. In brief, micelles of 2.5 μg L-a-Phosphatidylinositol and 2.5 μg 1,2-Diacyl-sn-glycero-3-phospho-L-serine were formed by sonication, mixed with the individual PI3K isoforms and added to the drug dilutions in a reaction buffer containing 10 mM HEPES, 25 mM NaCl, 0.125 μg/μl BSA, and 2 mM BME (final concentrations). Reactions were timed after the addition of 10 μM ATP with 40 μCi/ml γ-32P-ATP (PerkinElmer, Waltham, MA, USA) and 2 mM MgCl2 (all final concentrations). The reactions were terminated after two hours by the addition of 2 N HCl and the lipids extracted with 1:1 MetOH/Chloroform. Radio-labeled phosphatidyl-inositol-3-phosphate in the extracted organic fraction was quantified after the addition of Microscint O (PerkinElmer) using a TopCount 96 well plate scintillation counter (PerkinElmer). IC50 concentrations and inhibition curves were calculated using Prism 5 (GraphPad Software, La Jolla, CA).

Another test deals with T3, p110γ (Homo sapiens, UniProt P48736).
T3 construct: His-tag; made in house; host or cells: Sf9 insect cells (baculovirus)
T3 sequence (P48736 whole entry): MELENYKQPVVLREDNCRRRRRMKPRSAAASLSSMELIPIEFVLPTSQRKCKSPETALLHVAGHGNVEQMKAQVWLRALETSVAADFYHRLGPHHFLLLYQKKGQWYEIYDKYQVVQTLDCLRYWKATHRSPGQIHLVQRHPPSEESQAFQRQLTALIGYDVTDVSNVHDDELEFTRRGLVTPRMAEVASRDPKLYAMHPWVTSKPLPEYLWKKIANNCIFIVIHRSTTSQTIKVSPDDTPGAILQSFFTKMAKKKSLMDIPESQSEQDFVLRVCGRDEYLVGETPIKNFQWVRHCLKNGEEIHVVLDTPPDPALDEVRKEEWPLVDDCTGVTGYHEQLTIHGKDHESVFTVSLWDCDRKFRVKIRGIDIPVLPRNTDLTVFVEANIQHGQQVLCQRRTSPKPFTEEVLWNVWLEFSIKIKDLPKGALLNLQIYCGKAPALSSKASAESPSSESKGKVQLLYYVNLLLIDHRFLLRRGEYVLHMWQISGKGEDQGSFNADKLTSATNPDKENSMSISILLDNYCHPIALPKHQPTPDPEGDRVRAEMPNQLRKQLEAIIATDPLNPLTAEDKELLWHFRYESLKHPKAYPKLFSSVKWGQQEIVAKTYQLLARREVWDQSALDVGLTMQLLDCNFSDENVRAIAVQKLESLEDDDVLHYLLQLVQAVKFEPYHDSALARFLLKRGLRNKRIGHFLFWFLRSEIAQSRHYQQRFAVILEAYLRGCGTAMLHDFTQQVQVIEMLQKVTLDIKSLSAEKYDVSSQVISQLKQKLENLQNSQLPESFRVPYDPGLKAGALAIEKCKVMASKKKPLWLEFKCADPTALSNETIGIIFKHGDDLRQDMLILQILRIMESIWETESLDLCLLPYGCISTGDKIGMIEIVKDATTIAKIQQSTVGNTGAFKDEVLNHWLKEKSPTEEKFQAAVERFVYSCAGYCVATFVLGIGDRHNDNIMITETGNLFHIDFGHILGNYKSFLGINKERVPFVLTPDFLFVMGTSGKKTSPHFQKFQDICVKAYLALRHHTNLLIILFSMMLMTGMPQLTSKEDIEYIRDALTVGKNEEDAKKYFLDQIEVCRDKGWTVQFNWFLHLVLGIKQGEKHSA
Description: Biochemical PI3K inhibition assay, p110γ. The note with it: for IC50: 10 μM ATP, two hours, no regulatory subunit.
Text: as §1, §2

Test [1] concerns subcutaneous HCT116 xenograft tumors. The test is described as follows: Xenograft tumor model. It is filed as in vivo. The note with it: nude mice, 150 mg/kg IP daily for three weeks. The method, then: (§3) Tumor xenografts were established by injecting 5x10^6 HCT116 cells subcutaneously into the right flanks of female nude mice. Tumor volume was measured twice weekly using electronic calipers and calculated as length x width^2 x 0.5. After tumors reached an average volume of 50 mm^3, animals were treated daily with drugs at 150 mg/kg via IP injection for three weeks. Tumor phospho-Akt levels were determined following harvest on the last day of the study. Xenografts were excised, snap frozen in liquid nitrogen and pulverized with a pestle. Homogenized tissue was re-suspended in lysis buffer (Cell Signaling Technology) and protein contents normalized by Bradford assay (Bio-Rad Laboratories, Hercules, CA, USA). Western blots were performed as described above.

Another test addresses T4, p110β (Homo sapiens, UniProt P42338).
T4 construct: His-tag; made in house; host or cells: Sf9 insect cells (baculovirus)
The test is described as follows: Biochemical PI3K inhibition assay, p110β. The note with it: for IC50: 10 μM ATP, two hours.
Text: as §1, §2

The subject of test [2] is phosphorylation of Akt1 and Akt2 in HCT116 cells. Description: P-Akt western analysis in cells. It is filed as cell-based, human. The note with it: 6 hours, concentrations that inhibited cell growth. As to the method: Phopspho-Akt levels were assayed in HCT116 cells. 1x10^6 cells/well were seeded in six-well plates and serum starved for 2 hours in McCoy's 5A medium. Drugs were pre-mixed with complete medium containing 10% FBS and incubated with the cells for 6 hours. Cells were lysed on ice with 100 mM Tris-HCl, pH 7.0, 10% 2-mercaptoethanol, 4% SDS, 20% glycerol, 0.05% Bromophenol blue, 20 μl 1 mM NaF, 1 mM Na3VO4, and Complete Protease Inhibitor Cocktail Tablet (Roche, Nutley, NJ, USA) without EDTA and sonicated for 30 seconds. Phospho-Akt was assayed with Phospho-Akt (Ser473) antibody (#9271, Cell Signaling Technology, Danvers, MA, USA). Subsequently the membrane was stripped and incubated with Akt1 (D-17) antibody (sc-7126, Santa Cruz Biotechnology,Santa Cruz, CA, USA)) for loading control.

The test system of test [3] is P-Akt in HCT116 xenografts. The test is described as follows: Intra-tumor P-Akt levels in xenografts. It is filed as in vivo, nude mice. The note with it: post IP injection. The method, then: as §3
Test [4] concerns Intraspleenic-injected HCT116 liver and lung metastases. The test is described as follows: Intraspleenic tumor model (metastasis). It is filed as in vivo, mice. The note with it: 150 mg/kg IP daily, three weeks. The method, then:
Intraspleenic-injected HCT116 liver and lung metastases in NOD.Cg-Prkdcscid Il2rgtm1Wjl/SzJ mice (Jackson Laboratory, Bar Harbor, ME, USA) were generated as described in Erikson et. al.. J-series compounds were solubilized in 1:1 DMSO/Cremophor EL (Sigma-Aldrich) and diluted 2.3-fold in water to a final concentration of 7.5 mg/ml. 400 μl of this formulation (150 mg/kg) was injected intraperitoneally (IP) once a day for three weeks, beginning the third day post-surgery. Mice were sacrificed after the treatment and the liver, lungs, and spleen sampled. DNA was extracted from organs with the DNeasy Blood & Tissue Kit (Qiagen). The qPCR assay used for quantification of human DNA in mouse organs has been described. All mouse protocols were designed in accordance with the NIH Guide for the Care and Use of Laboratory Animals and approved by the Institutional Animal Care and Use Committee.

T1 sequence (P42336 whole entry): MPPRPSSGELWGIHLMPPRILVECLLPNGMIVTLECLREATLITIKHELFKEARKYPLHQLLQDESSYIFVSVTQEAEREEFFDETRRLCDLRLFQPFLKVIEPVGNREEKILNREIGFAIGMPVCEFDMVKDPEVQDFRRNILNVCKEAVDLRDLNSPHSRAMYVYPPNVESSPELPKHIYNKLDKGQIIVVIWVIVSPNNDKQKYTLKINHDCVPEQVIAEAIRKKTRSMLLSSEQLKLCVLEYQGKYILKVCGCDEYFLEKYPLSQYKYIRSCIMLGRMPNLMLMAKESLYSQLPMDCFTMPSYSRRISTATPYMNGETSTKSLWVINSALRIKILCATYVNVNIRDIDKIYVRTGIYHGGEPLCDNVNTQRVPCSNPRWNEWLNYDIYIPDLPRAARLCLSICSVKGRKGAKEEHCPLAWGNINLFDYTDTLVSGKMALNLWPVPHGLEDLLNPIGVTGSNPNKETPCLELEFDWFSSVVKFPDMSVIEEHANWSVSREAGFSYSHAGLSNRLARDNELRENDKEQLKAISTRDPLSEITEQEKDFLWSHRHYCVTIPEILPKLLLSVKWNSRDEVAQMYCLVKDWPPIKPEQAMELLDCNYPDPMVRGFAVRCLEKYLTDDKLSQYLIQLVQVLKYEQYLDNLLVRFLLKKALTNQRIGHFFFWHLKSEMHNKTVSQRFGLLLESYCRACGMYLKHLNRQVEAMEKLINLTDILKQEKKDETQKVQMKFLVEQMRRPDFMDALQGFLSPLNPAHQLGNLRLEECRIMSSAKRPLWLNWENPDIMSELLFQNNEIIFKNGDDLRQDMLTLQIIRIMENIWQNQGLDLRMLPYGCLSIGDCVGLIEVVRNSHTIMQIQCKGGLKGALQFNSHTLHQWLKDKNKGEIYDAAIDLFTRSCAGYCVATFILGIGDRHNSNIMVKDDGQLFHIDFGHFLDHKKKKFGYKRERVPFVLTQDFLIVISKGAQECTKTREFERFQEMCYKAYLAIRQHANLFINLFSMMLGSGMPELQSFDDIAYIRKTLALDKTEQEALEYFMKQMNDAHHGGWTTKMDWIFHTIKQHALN
T1 sequence (P27986 322-600 partner limits assumed): as the sequence (P27986 322-600 partner limits assumed) above
T4 sequence (P42338 whole entry): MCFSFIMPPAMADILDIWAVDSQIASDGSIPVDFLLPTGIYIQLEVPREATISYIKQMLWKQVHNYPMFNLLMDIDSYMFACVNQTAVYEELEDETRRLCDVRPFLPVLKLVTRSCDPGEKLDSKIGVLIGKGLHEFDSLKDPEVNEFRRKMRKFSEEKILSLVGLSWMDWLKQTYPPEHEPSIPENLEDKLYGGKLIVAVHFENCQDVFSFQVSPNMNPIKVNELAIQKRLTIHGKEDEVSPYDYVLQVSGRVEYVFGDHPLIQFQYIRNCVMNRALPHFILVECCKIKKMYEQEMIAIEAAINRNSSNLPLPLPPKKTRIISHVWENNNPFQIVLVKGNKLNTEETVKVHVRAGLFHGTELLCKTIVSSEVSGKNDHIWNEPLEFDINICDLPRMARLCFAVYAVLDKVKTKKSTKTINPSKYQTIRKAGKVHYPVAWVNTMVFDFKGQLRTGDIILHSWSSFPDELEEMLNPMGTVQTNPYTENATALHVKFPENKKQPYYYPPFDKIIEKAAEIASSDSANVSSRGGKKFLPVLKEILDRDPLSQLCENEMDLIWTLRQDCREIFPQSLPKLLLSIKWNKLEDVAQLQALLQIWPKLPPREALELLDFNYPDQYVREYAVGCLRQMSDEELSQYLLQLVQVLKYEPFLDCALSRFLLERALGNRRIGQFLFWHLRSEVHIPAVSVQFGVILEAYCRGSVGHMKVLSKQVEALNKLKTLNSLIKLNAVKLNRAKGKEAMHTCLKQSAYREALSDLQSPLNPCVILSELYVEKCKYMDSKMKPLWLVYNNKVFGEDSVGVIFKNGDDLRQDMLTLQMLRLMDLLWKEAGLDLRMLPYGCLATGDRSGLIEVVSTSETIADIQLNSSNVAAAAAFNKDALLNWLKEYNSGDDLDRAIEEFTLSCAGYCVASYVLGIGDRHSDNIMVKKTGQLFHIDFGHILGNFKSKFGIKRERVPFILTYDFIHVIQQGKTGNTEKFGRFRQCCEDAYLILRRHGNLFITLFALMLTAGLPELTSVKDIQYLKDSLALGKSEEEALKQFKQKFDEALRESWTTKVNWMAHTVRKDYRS
T4 sequence (P27986 322-600 partner limits assumed): as the sequence (P27986 322-600 partner limits assumed) above

Regarding `CCN(/N=C/c1cnc2ccc(Br)cn12)S(=O)(=O)c1cc([N+](=O)[O-])ccc1C` [J32], the IC50 (commonly the concentration that gives 50% inhibition) on p110α was determined as 0.015 µM; against p110δ it was 1.4 µM; against p110γ, 0.62 µM; against p110β, 1.2 µM. Besides, the “increase of selectivity against the other three isoforms” value at p110α (J32 versus J27) was “up to 8 fold”. The “effect of substitution on PI3Kα potency/selectivity (in words)” value on p110α was “potency for PI3Kα was retained”. Besides, in test [1], the “anti-tumor activity against subcutaneous HCT116 xenograft tumors” value was “Only a minor anti-tumor activity”.
Consider `CCN(/N=C/c1cnc2ccc(Br)cn12)S(=O)(=O)c1cc([N+](=O)[O-])c(N)cc1C` [J124-I], for which the IC50 at p110α was determined as 0.002 µM; on p110δ it was 0.026 µM; on p110γ, 0.073 µM; against p110β, 0.046 µM. The “increase of inhibitory activity for PI3Kα” value on p110α (compared to J32) amounted to 7.5 fold. Besides, in test [2], the “phosphorylation of Akt1 and Akt2 (western blot)” value is “inhibitory effect”. Also, in test [3], the “intra-tumor P-Akt levels” value was “reduced up to 3 hours”. The “anti-tumor activity against subcutaneous HCT116 xenograft tumors” value in test [1] is “Only a minor anti-tumor activity”.
Regarding `CCN(/N=C/c1cnc2ccc(Br)cn12)S(=O)(=O)c1cc([N+](=O)[O-])c(N)cc1Cl` [J128], the “metastatic lesions in the lungs” value in test [4] is “no lesions”. The “metastatic foci in the liver (histopathology)” value in test [4] (compared to vehicle) is listed as “few, if any, metastatic foci”. The “reduction in primary tumor burden in the spleen (real-time PCR)” value in test [4] (compared to vehicle) was ~ 50%. In test [4] (compared to vehicle), the “reduction of metastatic liver burden (real-time PCR)” value is given as 9 fold. Besides, the IC50 worked out at 0.004 µM at p110α, 0.11 µM against p110δ, 0.25 µM on p110γ and 0.13 µM against p110β.
Turning to `CCN(/N=C/c1cnc2ccc(Br)cn12)S(=O)(=O)c1cc([N+](=O)[O-])c(NCCO)cc1C` [J162], the IC50 at p110α amounted to 0.025 µM; on p110δ, 0.4 µM; on p110γ it was 0.21 µM; against p110β, 2.4 µM. For the same compound, the “effect of substitution on PI3Kα potency/selectivity (in words)” value on p110α is “did not impact the inhibitory activity for PI3Kα substantially”.
The corresponding values for `CCN(/N=C/c1cnc2ccc(Br)cn12)S(=O)(=O)c1cc([N+](=O)[O-])c(NCC(N)=O)cc1C` [J163] are 0.014 µM, 0.13 µM, 0.074 µM, 2.1 µM and “did not impact the inhibitory activity for PI3Kα substantially”.
Regarding `CCN(/N=C/c1cnc2ccc(Br)cn12)S(=O)(=O)c1cc([N+](=O)[O-])c(NCC(=O)NC(Cc2ccccc2)C(=O)O)cc1C` (centres unmarked) [J171], the IC50 against p110α was 0.019 µM; against p110δ, 1.96 µM; on p110γ, 1.15 µM; on p110β, 12.8 µM. In addition, the “effect of substitution on PI3Kα potency/selectivity (in words)” value on p110α is “retained nanomolar potencies”. Also, the “selectivity against PI3Kδ” value on p110δ (relative to PI3Kα) is 100 fold. Moreover, the “selectivity against PI3Kγ” value on p110γ (relative to PI3Kα) is given as 60 fold. Further, the “selectivity against PI3Kβ” value on p110β (relative to PI3Kα) was ~ 670 fold.
